Measured values published in patent US8247211B2, “Glycopeptide antibiotics” (American Cyanamid Company, priority 2001, dated 2012).
Values after ≈ are worked out from the molar mass of the structure shown.

Key:
Experiment in all cases: In vitro antibacterial evaluation: minimum inhibitory concentration (MIC), broth dilution method
Assay type in all cases: cell-based
[1] = system: Enterococcus sp.
Procedure, shortened: (§1)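 Susceptibility determined by NCCLS-recommended broth dilution (M7-A2), Muller-Hinton II […]. Concentration span 64-0.06 μg/mL, inoculum 5×10^5 CFU/mL. Isolates include strains resistant to methicillin, penicillin and/or vancomycin.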

[2] = system: Staphylococcus sp.; settings: broth dilution, 18 hours at 35° C.
Procedure, shortened: as §1

[3] = system: Streptococcus sp.
Procedure, shortened: as §1

[4] = system: Escherichia coli
Procedure, shortened: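 An MIC is reported for each organism as the least concentration giving inhibition, using broth dilution over 64-0.06 μg/mL with a 5×10^5 CFU/mL inoculum.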

[5] = broth dilution, inoculum 5×10^5 CFU/mL, 18 hours at 35° C.

MIC Enterococcus avium (GC 4558) [1, 5]: 8 µg/mL (≈ 5.46 µM) | MIC Enterococcus faecalis (ATCC 29212) [1, 5]: 8 µg/mL (≈ 5.46 µM) | MIC Enterococcus faecalis (GC 2242) [1, 5]: 4 µg/mL (≈ 2.73 µM) | MIC Enterococcus faecalis (GC 2691) [1, 5]: 8 µg/mL (≈ 5.46 µM) | MIC Enterococcus faecalis (GC 3059) [1, 5]: 8 µg/mL (≈ 5.46 µM) | MIC Enterococcus faecalis (GC 4552) [1, 5]: 8 µg/mL (≈ 5.46 µM) | MIC Enterococcus faecalis (GC 4553) [1, 5]: 8 µg/mL (≈ 5.46 µM) | MIC Enterococcus faecalis (GC 4554) [1, 5]: 16 µg/mL (≈ 10.9 µM) | MIC Enterococcus faecalis (GC 6189) [1, 5]: 4 µg/mL (≈ 2.73 µM) | MIC Enterococcus faecium (GC 2243) [1, 5]: 8 µg/mL (≈ 5.46 µM) | MIC Enterococcus faecium (GC 4556) [1, 5]: 8 µg/mL (≈ 5.46 µM) | MIC Enterococcus faecium (GC 4557) [1, 5]: 4 µg/mL (≈ 2.73 µM) | MIC Enterococcus faecalis (ATCC 29212) ([1]; strain ATCC 29212): 8 µg/mL (≈ 5.46 µM) | MIC Enterococcus faecalis (GC 2242) ([1]; strain GC 2242): 4 µg/mL (≈ 2.73 µM) | MIC Enterococcus faecium (GC 2243) ([1]; strain GC 2243): 8 µg/mL (≈ 5.46 µM) | MIC Enterococcus faecalis (GC 2691) ([1]; strain GC 2691): 8 µg/mL (≈ 5.46 µM) | MIC Enterococcus faecalis (GC 3059) ([1]; strain GC 3059): 8 µg/mL (≈ 5.46 µM) | MIC Enterococcus faecalis (GC 4552) ([1]; strain GC 4552): 8 µg/mL (≈ 5.46 µM) | MIC Enterococcus faecalis (GC 4553) ([1]; strain GC 4553): 8 µg/mL (≈ 5.46 µM) | MIC Enterococcus faecalis (GC 4554) ([1]; strain GC 4554): 16 µg/mL (≈ 10.9 µM) | MIC Enterococcus faecium (GC 4556) ([1]; strain GC 4556): 8 µg/mL (≈ 5.46 µM) | MIC Enterococcus faecium (GC 4557) ([1]; strain GC 4557): 4 µg/mL (≈ 2.73 µM) | MIC Enterococcus avium (GC 4558) ([1]; strain GC 4558): 8 µg/mL (≈ 5.46 µM) | MIC Enterococcus faecalis (GC 6189) ([1]; strain GC 6189): 4 µg/mL (≈ 2.73 µM) | MIC Coagulase Negative Staphylococcus (GC 4547) ([2]; 5×10^5 CFU/mL): 4 µg/mL (≈ 2.73 µM) | MIC Coagulase Negative Staphylococcus (GC 4548) ([2]; 5×10^5 CFU/mL): 1 µg/mL (≈ 0.682 µM) | MIC Coagulase Negative Staphylococcus (GC 4549) ([2]; 5×10^5 CFU/mL): 0.5 µg/mL (≈ 0.341 µM) | MIC Coagulase Negative Staphylococcus (GC 4551) ([2]; 5×10^5 CFU/mL): 4 µg/mL (≈ 2.73 µM) | MIC Coagulase Negative Staphylococcus (GC 6257) ([2]; 5×10^5 CFU/mL): 1 µg/mL (≈ 0.682 µM) | MIC Staphylococcus aureus (ATCC 29213) ([2]; 5×10^5 CFU/mL): 8 µg/mL (≈ 5.46 µM) | MIC Staphylococcus aureus (GC 1131) ([2]; 5×10^5 CFU/mL): 4 µg/mL (≈ 2.73 µM) | MIC Staphylococcus aureus (GC 3051) ([2]; 5×10^5 CFU/mL): 16 µg/mL (≈ 10.9 µM) | MIC Staphylococcus aureus (GC 3053) ([2]; 5×10^5 CFU/mL): 8 µg/mL (≈ 5.46 µM) | MIC Staphylococcus aureus (GC 4541) ([2]; 5×10^5 CFU/mL): 8 µg/mL (≈ 5.46 µM) | MIC Staphylococcus aureus (GC 4542) ([2]; 5×10^5 CFU/mL): 16 µg/mL (≈ 10.9 µM) | MIC Staphylococcus aureus (GC 4544) ([2]; 5×10^5 CFU/mL): 8 µg/mL (≈ 5.46 µM) | MIC Staphylococcus aureus (GC 4545) ([2]; 5×10^5 CFU/mL): 4 µg/mL (≈ 2.73 µM) | MIC Staphylococcus aureus-SMITH (GC 4543) ([2]; 5×10^5 CFU/mL): 4 µg/mL (≈ 2.73 µM) | MIC Staphylococcus aureus (ATCC 29213) ([2]; strain ATCC 29213): 8 µg/mL (≈ 5.46 µM) | MIC Staphylococcus aureus (GC 1131) ([2]; strain GC 1131): 4 µg/mL (≈ 2.73 µM) | MIC Staphylococcus aureus (GC 3051) ([2]; strain GC 3051): 16 µg/mL (≈ 10.9 µM) | MIC Staphylococcus aureus (GC 3053) ([2]; strain GC 3053): 8 µg/mL (≈ 5.46 µM) | MIC Staphylococcus aureus (GC 4541) ([2]; strain GC 4541): 8 µg/mL (≈ 5.46 µM) | MIC Staphylococcus aureus (GC 4542) ([2]; strain GC 4542): 16 µg/mL (≈ 10.9 µM) | MIC Staphylococcus aureus-SMITH (GC 4543) ([2]; strain GC 4543): 4 µg/mL (≈ 2.73 µM) | MIC Staphylococcus aureus (GC 4544) ([2]; strain GC 4544): 8 µg/mL (≈ 5.46 µM) | MIC Staphylococcus aureus (GC 4545) ([2]; strain GC 4545): 4 µg/mL (≈ 2.73 µM) | MIC Coagulase Negative Staphylococcus (GC 4547) ([2]; strain GC 4547): 4 µg/mL (≈ 2.73 µM) | MIC Coagulase Negative Staphylococcus (GC 4548) ([2]; strain GC 4548): 1 µg/mL (≈ 0.682 µM) | MIC Coagulase Negative Staphylococcus (GC 4549) ([2]; strain GC 4549): 0.5 µg/mL (≈ 0.341 µM) | MIC Coagulase Negative Staphylococcus (GC 4551) ([2]; strain GC 4551): 4 µg/mL (≈ 2.73 µM) | MIC Coagulase Negative Staphylococcus (GC 6257) ([2]; strain GC 6257): 1 µg/mL (≈ 0.682 µM) | MIC Streptococcus agalactiae (GC 4564) [3, 5]: 0.12 µg/mL (≈ 0.0819 µM) | MIC Streptococcus pneumoniae (ATCC 6301) [3, 5]: <0.06 µg/mL | MIC Streptococcus pneumoniae (GC 1894) [3, 5]: <0.06 µg/mL | MIC Streptococcus pneumoniae (GC 4565) [3, 5]: <0.06 µg/mL | MIC Streptococcus pyogenes (GC 4563) [3, 5]: 0.12 µg/mL (≈ 0.0819 µM) | MIC Streptococcus pneumoniae (ATCC 6301) ([3]; strain ATCC 6301): <0.06 µg/mL | MIC Streptococcus pneumoniae (GC 1894) ([3]; strain GC 1894): <0.06 µg/mL | MIC Streptococcus pyogenes (GC 4563) ([3]; strain GC 4563): 0.12 µg/mL (≈ 0.0819 µM) | MIC Streptococcus agalactiae (GC 4564) ([3]; strain GC 4564): 0.12 µg/mL (≈ 0.0819 µM) | MIC Streptococcus pneumoniae (GC 4565) ([3]; strain GC 4565): <0.06 µg/mL | MIC Escherichia coli (ATCC 25922) ([4]; strain ATCC 25922): >64 µg/mL | MIC Escherichia coli (GC 4559) ([4]; strain GC 4559): 64 µg/mL (≈ 43.7 µM) | MIC Escherichi coli (GC 4560) ([4]; strain GC 4560): 4 µg/mL (≈ 2.73 µM)
Compound: CC(c1ccccc1)C1NC(=O)CNC(=O)C(CO)NC(=O)C(C(O)C2CNC(=N)N2C2OC(CO)C(O)C(O)C2O)NC(=O)C(C(O)C2CNC(=N)N2)NC(=O)C(Cc2ccc(OC3OC(CO)C(OC4OC5COC(c6ccc(-c7ccsc7)cc6)OC5C(O)C4O)C(O)C3O)cc2)NC1=O (stereo not drawn) [Example 164, Cyclo[glycyl-β-methylphenylalanyl-O-[4-O-[4,6-O-[4-(3-thienyl)benzylidene]hexopyranosyl]-hexopyranosyl]tyrosyl-3-(2-iminoimidazolidin-4-yl)seryl-3-(3-hexopyranosyl-2-iminoimidazolidin-4-yl)serylseryl]]
MIC Staphylococcus haemolyticus (GC 4546) ([2]; 5×10^5 CFU/mL): 4 µg/mL (≈ 2.73 µM) | MIC Staphylococcus haemolyticus (GC 4546) ([2]; strain GC 4546): 4 µg/mL (≈ 2.73 µM)
